The test system of test [1] is LTB4 formation in human whole blood. As to the kind of experiment: Calcium ionophore (A23187)-induced LTB4 biosynthesis in human whole blood. Type of test: cell-based. Particulars: human heparinized whole blood; 15 min preincubation at 37° C.; A23187 50.0 μM, 30 min; read-out: IC50, in vitro inhibitory potency against stimulated LTB4 formation in human whole blood. As to the method: Inhibition of leukotriene biosynthesis was evaluated in an assay, involving calcium ionophore-induced LTB4 biosynthesis in human whole blood. Human heparinized whole blood was preincubated with test compounds or vehicle for 15 min at 37° C. followed by calcium ionophore A23187 challenge (final concentration of 50.0 μM) and the reaction terminated after 30 min by adding two volumes of methanol. The methanol extract was analyzed for LTB4 using a commercially available immunoassay.

For test [2], the system named is biosynthesis of leukotrienes. As to the kind of experiment: Rat peritoneal anaphylaxis model, inhibition of leukotriene biosynthesis in vivo after oral administration. Particulars: oral gavage one hour prior to antigen challenge, @ 15 mg/kg. The method, then:
Inhibition of the biosynthesis of leukotrienes in vivo after oral administration of compound was determined using a rat peritoneal anaphylaxis model similar to that described by Young and coworkers (Young, P. R.; Bell, R. L.; Lanai, C.; Summers, J. B.; Brooks, D. W.; Carter, G. W. (1991): Inhibition of leukotriene biosynthesis in the rat peritoneal cavity. Eur. J. Pharmacol 1991, 205, 259-266). In this model rats were injected intraperitoneally (ip) with rabbit antibody to bovine serum albumin (BSA) and three hours later injected ip with BSA to induce an antigen-antibody response. Rats were sacrificed 15 minutes after this challenge and the peritoneal fluids were collected and analyzed for leukotriene levels. Test compounds were administered by gavage one hour prior to the antigen challenge. To measure immunoreactive leukotriene levels in the various lavage fluids, the samples were diluted 1:3 (v/v) with the EIA buffer containing 100 mM phosphate, 1.5 mM sodium azide, 400 mM sodium chloride, 0.1 mM sodium EDTA and 0.1% BSA, pH 7.4. Methanol, at a final concentration of 22%, was included in the assay standards to compensate for the amount in the biological samples. EIA reagents for cysteinyl leukotrienes determination were purchased from, Cayman Chemical Co., Ann Arbor, Mich. The LTE4 tracer was prepared in-house. The immunoassays for LTE4 were then conducted as recommended by the manufacturer with the exception that volumes were adjusted to accommodate automation using a Cetus Propette (Cetus Corp., San Francisco, Calif.). The EIA was conducted in 96 well microtiter plates (Nunc Roskilde, Denmark) and optical density measured using a microplate reader (Vmax, Molecular Devices Corp., Menlo Park, Calif.). Percent inhibition values were determined by comparing the treatment group to the mean of the control group.

The subject of test [3] is biosynthesis of prostaglandins. Nature of the test: Rat pleural inflammation model (A23187), inhibition of prostaglandin biosynthesis in vivo. Particulars: oral dose of 10 mg/kg, TXB2 by EIA. As to the method:
(§1) Pleural inflammation was induced in male rats following the method of Rao et. al., Life Sci, 1993, 53, 52. Animals were dosed with experimental compounds in 0.2% HPMC one hour prior to the intrapleural injection of the calcium ionophore, A23187. The rats were lightly anesthetized with Penthrane (Abbott Laboratories) and injected intrapleurally with 0.5 ml of 2% ethanol in injectable saline (Abbott Laboratories) containing 20 μg of A23187 (Cal BioChem-Novabiochem). Thirty minutes later the animals were euthanized and the pleural cavities lavaged with ice cold saline. The lavage fluid was then added to ice cold methanol (final methanol concentration 30%) to lyse cells and precipitate protein.
(§2) Cyclooxygenase activity of whole blood was determined by analysis of these samples for TXB2 by EIA (Advanced Magnetics, Cambridge, Mass.).

The next test deals with TXB2. Nature of the test: Dog ex vivo A23187-stimulated blood after oral dosing, inhibition of TXB2. The conditions noted are these: beagle dog, oral dose of 2 mg/kg, 8 hours after dosing; blood incubated with 50 μM A23187. It counts as in vivo. The source says:
(§3) Inhibition of both leukotriene formation and prostaglandin formation was also shown in the dog. This was done using the method described by Carter et al. (Carter, G. W., Young, P. R., Albert, D. H., Bouska, J., Dyer, R., Bell, R. L., Summers, J. B. and Brooks, D. W.: J. Pharmacol. Exp. Ther. 256: 929-937, 1991.). Compound was suspended in 0.2% methylcellulose with a Potter-Elvehjem homogenizer equipped with a Teflon-coated pestle and administered orally to beagle dogs (Marshall Farms, North Rose, N.Y.) All animals were fasted overnight before dosing but allowed water ad libitum. Heparinized blood samples were obtained before and at various times after compound administration. Aliquots of blood were incubated at 37° with 50 μM with calcium ionophore, A23187. After 30 minutes, the blood was placed in an ice bath and analyzed for LTB4 and TXB2 as described above.

Another test has as its system LTB4. Nature of the test: Dog ex vivo A23187-stimulated blood after oral dosing, inhibition of LTB4. It counts as in vivo. The conditions noted are these: beagle dog, oral dose of 2 mg/kg, 8 hours after dosing; blood incubated with 50 μM A23187.
From the text: as §3

In test [4] the test system is biosynthesis of leukotrienes. Nature of the test: Rat pleural inflammation model (A23187), inhibition of leukotriene biosynthesis in vivo. Particulars: oral dose of 10 mg/kg. The method, then: as §1, §2

This is an account of results in patent publication US5516789A, “Lipoxygenase and cyclooxygenase inhibiting compounds” (Abbott Laboratories, priority 1995, dated 1996).

As a reminder, the IC50 is the concentration needed to halve the response being measured.

Consider `COc1ccc2cc([C@H](C)C(=O)ON(C(N)=O)C(C)c3ccoc3)ccc2c1` (stereo partly drawn) [Example 1, N-[(S)-2-(6-methoxynaphth-2-yl)propionyloxy]-N-[1-(fur-3-yl)ethyl]urea], for which, in test [1], the IC50 was 4 µM.
Still for that read-out and setting: for `CC(C)Cc1ccc(C(C)C(=O)ON(C(N)=O)C(C)c2cc3ccccc3s2)cc1` (centres unmarked) [Example 3, N-[2-(4-(2-methylpropyl)phenyl)propionyloxy]-N -[1-(benzo[b]thien-2-yl)ethyl]urea] the value was 5.8 µM; for `COc1ccc2c(c1)c(CC(=O)ON(C(N)=O)C(C)c1cc3ccccc3s1)c(C)n2C(=O)c1ccc(Cl)cc1` (centres unmarked) [Example 4, N-[2-(N-(4-chlorobenzoyl)-5-methoxy-2-methyl-[1H]-indol-3-yl)acetoxy]-N-[1-(benzo[b]thien-2-yl)ethyl] urea], 1.8 µM.
As to `COc1ccc2cc([C@H](C)C(=O)ON(C(N)=O)C(C)C#Cc3ccc(Oc4ccc(F)cc4)o3)ccc2c1` (stereo partly drawn) [Example 18, N-[(S)-2-(6-methoxynaphth-2-yl)propionyloxy]-N-[3-(5-(4-fluorophenoxy)fur-2-yl)-1-methyl-2-propynyl]urea], the “% Inhibition (in vivo, leukotriene biosynthesis)” value in test [2] is 40%. For the same molecule, the IC50 in test [1] stood at 1.3 µM.
As to `CC(C)Cc1ccc(C(C)C(=O)ON(C(N)=O)C(C)C#Cc2ccc(Oc3ccc(F)cc3)o2)cc1` (centres unmarked) [Example 19, N-[2-(4-(2-methylpropyl)phenyl)propionyloxy]-N-[3-(5-(4-fluorophenoxy)fur-2-yl)-1-methyl-2-propynyl]urea], the “% Inhibition (in vivo, leukotriene biosynthesis)” value in test [2] is on record as 41%. In test [1], the half-inhibitory concentration (IC50) amounted to 1.2 µM.
Taken in the same sequence, the figures for `CC(C)Cc1ccc(C(C)C(=O)ON(C(N)=O)C(C)c2ccoc2)cc1` (centres unmarked) [Example 20, N-[2-(4-(2-methylpropyl)phenyl)propionyloxy]-N-[1-(fur-3-yl)ethyl]urea] were 43% and 9.9 µM.
`COc1ccc2cc([C@H](C)C(=O)ON(C(N)=O)[C@H](C)C#Cc3ccc(Cc4ccc(F)cc4)s3)ccc2c1` [Example 21, N-[(S)-2-(6-methoxynaphth-2-yl)propionyloxy]-N-[3-(5-(4-fluorophenylmethyl)thien-2-yl)-(R)-1-methyl-2-propynyl]urea]: in test [3], the “inhibition of the biosynthesis of prostaglandins” value was 68%. For the same molecule, the “inhibition of TXB2” value in the test on TXB2 stood at 47%. The “inhibition of LTB4” value with LTB4 is on record as 54%. For the same molecule, the “inhibition of the biosynthesis of leukotrienes” value in test [4] was 71%.
Consider `CC(=O)Oc1ccccc1C(=O)ON(C(N)=O)C(C)C#Cc1ccc(Oc2ccc(F)cc2)o1` (centres unmarked) [Example 37, N-[2-(acetoxybenzoyl)oxy]-N-[3-(5-(4-fluorophenoxy)fur-2-yl)-1-methyl-2-propynyl]urea], for which the IC50 in test [1] was determined as 0.16 µM.
